In patent US7893062B2, “Pyrrolidine derivatives as dual NK1/NK3 receptor antagonists” (Hoffmann-La Roche Inc., priority 2007, dated 2011):

How the values were obtained:
[1] = target: human NK1 receptor (Homo sapiens, UniProt P25103); test: NK1 receptor affinity, [3H]substance P displacement in CHO cell membranes; assay type: binding; settings: human NK1 receptor in CHO cells, [3H]substance P 0.6 nM
Description: The affinity of test compounds for the NK1 receptor was evaluated at human NK1 receptors in CHO cells infected with the human NK1 receptor (using the Semliki virus expression system) and radiolabelled with [^3H]substance P (final concentration 0.6 nM). Binding assays were performed in HEPES buffer (50 mM, pH 7.4) containing BSA (0.04%) leupeptin (16.8 μg/ml), MnCl2 (3 mM) and phosphoramidon (2 μM). Binding assays consisted of 250 μl of membrane suspension (approximately 1.5 μg/well in a 96 well plate), […] of buffer of displacing agent and 125 μl of [^3H]substance P. Displacement curves were determined with at least seven concentrations of the compound. The assay tubes were incubated for 60 min at room temperature after which time the tube contents were rapidly filtered under vacuum through GF/C filters presoaked for 60 min with PEI (0.3%) with 3×1 ml washes of HEPES buffer (50 mM, pH 7.4). The radioactivity retained on the filters was measured by scintillation counting. All assays were performed in duplicate in at least 2 separate experiments. NK3

[2] = target: T1, human NK3 (hNK3) receptor (Homo sapiens, UniProt P29371); test: Recombinant hNK3 receptor affinity, [3H]SR142801 displacement; assay type: binding; settings: recombinant hNK3 membranes, [3H]SR142801 0.3 nM
T1 construct: expressed in transfected cells
T1 sequence (P29371 1-465): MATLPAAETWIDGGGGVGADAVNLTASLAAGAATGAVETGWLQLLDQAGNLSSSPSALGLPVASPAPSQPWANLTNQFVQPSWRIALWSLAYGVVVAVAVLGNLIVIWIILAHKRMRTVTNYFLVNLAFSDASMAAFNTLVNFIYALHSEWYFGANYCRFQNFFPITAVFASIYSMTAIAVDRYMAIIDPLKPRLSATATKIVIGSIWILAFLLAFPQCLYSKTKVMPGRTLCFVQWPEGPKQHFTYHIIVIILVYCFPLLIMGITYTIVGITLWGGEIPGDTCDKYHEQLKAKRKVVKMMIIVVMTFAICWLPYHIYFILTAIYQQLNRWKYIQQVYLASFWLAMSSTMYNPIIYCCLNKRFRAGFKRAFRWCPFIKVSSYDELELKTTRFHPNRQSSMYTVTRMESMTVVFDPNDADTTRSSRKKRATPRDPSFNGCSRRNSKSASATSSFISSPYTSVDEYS
Description: Recombinant human NK3 (hNK3) receptor affinity was determined in a 96 well plate assay, using [^3H]SR142801 (final concentration 0.3 nM) to radiolabel the hNK3 receptor in the presence of 10 concentrations of competing compound or buffer. Non specific binding was determined using 10 μM SB222200. Assay buffer consisted of Tris-HCl (50 mM, pH 7.4), BSA (0.1%), MnCl2 (4 mM) and phosphoramidon (1 μM). Membrane preparations of hNK3 receptors (approximately 2.5 μg/well in a 96 well plate) were used to initiate the incubation for 90 min at room temperature. This assay was terminated by rapid filtration under vacuum through GF/C filters, presoaked for 90 min with PEI (0.3%), with 3×0.5 ml washes of ice-cold Tris buffer (50 mM, pH 7.4) containing 0.1% BSA. The radioactivity retained on the filters was measured by scintillation counting. All assays were performed in duplicate in at least two separate experiments.

[3] = phase II trial, cited from earlier work

Chain of human NK1 receptor (P25103 whole entry): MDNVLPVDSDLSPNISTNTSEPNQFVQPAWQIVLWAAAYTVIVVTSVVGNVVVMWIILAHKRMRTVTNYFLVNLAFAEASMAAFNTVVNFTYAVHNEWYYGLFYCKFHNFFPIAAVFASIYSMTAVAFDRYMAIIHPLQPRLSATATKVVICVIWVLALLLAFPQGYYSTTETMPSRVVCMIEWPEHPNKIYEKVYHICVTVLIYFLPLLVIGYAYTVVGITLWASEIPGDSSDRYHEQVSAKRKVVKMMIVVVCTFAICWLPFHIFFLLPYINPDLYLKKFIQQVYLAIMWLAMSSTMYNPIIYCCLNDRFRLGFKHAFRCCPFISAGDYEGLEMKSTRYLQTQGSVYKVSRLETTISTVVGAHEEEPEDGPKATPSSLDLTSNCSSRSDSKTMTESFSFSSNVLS

## CN(C(=O)C(C)(C)c1cc(Cl)cc(Cl)c1)[C@@H]1CN(C(=O)N2CCOCC2)C[C@H]1c1ccc(F)cc1 (racemic) [Example 24, rac-2-(3,5-Dichloro-phenyl)-N-[(3S,4R)-4-(4-fluoro-phenyl)-1-(morpholine-4-carbonyl)-pyrrolidin-3-yl]-N-methyl-isobutyramide]
[1]
  Ki: 1.92 nM
[2]
  Ki: 200 nM

## CC(=O)N(C)C1(c2ccccc2)CCN(CCC[C@]2(c3ccc(Cl)c(Cl)c3)CCCN(C(=O)c3ccccc3)C2)CC1 [SR 142,801, Osanetant]
[3]; altered behaviour, delusion, hallucinations, extreme emotions, excited motor activity, incoherent speech
  activity on positive symptoms of schizophrenia: active
[3]; depression, anhedonia, social isolation, memory and attention deficits
  activity in the treatment of negative symptoms of schizophrenia: inactive

## Cc1cc(F)ccc1[C@@H]1CN(C(=O)N2CCN(S(C)(=O)=O)CC2)C[C@H]1N(C)C(=O)C(C)(C)c1cc(C(F)(F)F)cc(C(F)(F)F)c1 (racemic) [Example 28, rac-2-(3,5-Bis-trifluoromethyl-phenyl)-N-[(3S,4R)-4-(4-fluoro-2-methyl-phenyl)-1-(4-methanesulfonyl-piperazine-1-carbonyl)-pyrrolidin-3-yl]-N-methyl-isobutyramide]
[1]
  Ki: 0.689 nM
[2]
  Ki: 137 nM

## Cc1cc(F)ccc1[C@@H]1CN(C(=O)N2CCOCC2)C[C@H]1N(C)C(=O)C(C)(C)c1cc(C(F)(F)F)cc(C(F)(F)F)c1 (racemic) [Example 27, rac-2-(3,5-Bis-trifluoromethyl-phenyl)-N-[(3S,4R)-4-(4-fluoro-2-methyl-phenyl)-1-(morpholine-4-carbonyl)-pyrrolidin-3-yl]-N-methyl-isobutyramide]
[1]
  Ki: 0.341 nM
[2]
  Ki: 276 nM

## CN(C(=O)C(C)(C)c1cc(C(F)(F)F)cc(C(F)(F)F)c1)[C@@H]1CN(C(=O)N2CCN(S(C)(=O)=O)CC2)C[C@H]1c1ccc(F)cc1 (racemic) [Example 15, rac-2-(3,5-Bis-trifluoromethyl-phenyl)-N-[(3S,4R)-4-(4-fluoro-phenyl)-1-(4-methanesulfonyl-piperazine-1-carbonyl)-pyrrolidin-3-yl]-N-methyl-isobutyramide]
[1]
  Ki: 2.06 nM
[2]
  Ki: 155 nM

## CN(C(=O)C(C)(C)c1cc(C(F)(F)F)cc(C(F)(F)F)c1)[C@@H]1CN(C(=O)NCCO)C[C@H]1c1ccc(F)cc1 (racemic) [Example 26, rac-(3S,4R)-3-{[2-(3,5-Bis-trifluoromethyl-phenyl)-2-methyl-propionyl]-methyl-amino}-4-(4-fluoro-phenyl)-pyrrolidine-1-carboxylic acid (2-hydroxy-ethyl)-amide]
[1]
  Ki: 0.634 nM
[2]
  Ki: 212 nM

## CN(C(=O)C(C)(C)c1cc(C(F)(F)F)cc(C(F)(F)F)c1)[C@@H]1CN(C(=O)N(CCO)CCO)C[C@H]1c1ccc(F)cc1 (racemic) [Example 21, rac-(3S,4R)-3-{[2-(3,5-Bis-trifluoromethyl-phenyl)-2-methyl-propionyl]-methyl-amino}-4-(4-fluoro-phenyl)-pyrrolidine-1-carboxylic acid bis-(2-hydroxy-ethyl)-amide]
[1]
  Ki: 1.08 nM
[2]
  Ki: 204 nM

## CN(C(=O)C(C)(C)c1cc(C(F)(F)F)cc(C(F)(F)F)c1)[C@@H]1CN(C(=O)N2CCN(S(C)(=O)=O)CC2)C[C@H]1c1ccccc1 (racemic) [Example 22, rac-2-(3,5-Bis-trifluoromethyl-phenyl)-N-[(3S,4R)-1-(4-methanesulfonyl-piperazine-1-carbonyl)-4-phenyl-pyrrolidin-3-yl]-N-methyl-isobutyramide]
[1]
  Ki: 0.875 nM
[2]
  Ki: 203 nM

## CC(=O)N1CCN(C(=O)N2C[C@@H](N(C)C(=O)C(C)(C)c3cc(C(F)(F)F)cc(C(F)(F)F)c3)[C@H](c3ccc(F)cc3)C2)CC1 (racemic) [Example 16, rac-N-[(3S,4R)-1-(4-Acetyl-piperazine-1-carbonyl)-4-(4-fluoro-phenyl)-pyrrolidin-3-yl]-2-(3,5-bis-trifluoromethyl-phenyl)-N-methyl-isobutyramide]
[1]
  Ki: 1.41 nM
[2]
  Ki: 309 nM

## CN(C(=O)C(C)(C)c1cc(Cl)cc(Cl)c1)[C@@H]1CN(C(=O)N2CCN(S(C)(=O)=O)CC2)C[C@H]1c1ccc(Cl)cc1 (racemic) [Example 55, rac-N-[(3S,4R)-4-(4-Chloro-phenyl)-1-(4-methanesulfonyl-piperazine-1-carbonyl)-pyrrolidin-3-yl]-2-(3,5-dichloro-phenyl)-N-methyl-isobutyramide]
[1]
  Ki: 3.16 nM
[2]
  Ki: 30 nM

## CN(C(=O)C(C)(C)c1cc(Cl)cc(Cl)c1)[C@@H]1CN(C(=O)N2CCN(S(C)(=O)=O)CC2)C[C@H]1c1ccc(F)cc1 (racemic) [Example 23, rac-2-(3,5-Dichloro-phenyl)-N-[(3S,4R)-4-(4-fluoro-phenyl)-1-(4-methanesulfonyl-piperazine-1-carbonyl)-pyrrolidin-3-yl]-N-methyl-isobutyramide]
[1]
  Ki: 1.12 nM
[2]
  Ki: 92.4 nM

## CN(C(=O)C(C)(C)c1cc(C(F)(F)F)cc(C(F)(F)F)c1)[C@@H]1CN(C(=O)N2CCOCC2)C[C@H]1c1ccc(Cl)cc1 (racemic) [Example 2, rac-2-(3,5-Bis-trifluoromethyl-phenyl)-N-[(3S,4R)-4-(4-chloro-phenyl)-1-(morpholine-4-carbonyl)-pyrrolidin-3-yl]-N-methyl-isobutyramide]
[1]
  Ki: 2.35 nM
[2]
  Ki: 457 nM
